Assay results published in US12233047B2, “Pharmaceutical combination and use thereof” (ASCENTAGE PHARMA (SUZHOU) CO., LTD., priority 2019, dated 2025).

How the values were obtained:
[1] = tested on: Human AML cell line MOLM-13 (FLT3-ITD positive and wild type TP53 gene); assay: Human MOLM-13 AML systemic mouse xenograft model, survival; format: in vivo; conditions: MOLM-13 systemic model, Compound 23 10 mg/kg, Compound C 20 mg/kg, p.o. q2d × 21 d
Protocol: The formulation of Compound C was prepared as homogenous suspension in 0.2% HPMC using a mortar. The drug suspension was prepared every three days or once a week and placed at 4° C. when not in use. Before use, the drug suspension was placed at room temperature and shaken to mix well. The formulation of Compound C was administered to mice via p.o. in a volume of 10 mL/kg.
The formulation of Compound 23 was prepared in 0.2% HPMC in a mortar to generate homogenous suspension. The drug suspension was prepared once every other day and placed at 4° C. when not in use. Before use, the drug suspension was placed at room temperature and shaken well. The formulation of Compound 23 was administered to mice via p.o. in a volume of 10 mL/kg.
MOLM-13 cell lines (Human AML cell line MOLM-13 (FLT3-ITD positive and wild type TP53 gene)) were maintained in RPMI-1640 (Cat. C11875500BT, GIBCO) with 10% fetal bovine serum (Cat. 10099-141, GIBCO), 1% L-glutamine, 100 U/mL penicillin G and 100 μg/mL streptomycin (Cat. GNM15140, Hangzhou Geno Biomedical Technology Co., Ltd). Cells were incubated at 37° C. in a humidified incubator with 5% CO2.
Six to eight weeks old, female, NOD SCID and BALB/c nude mice were used. Animals were obtained from Vital River Laboratories (VRL, Beijing, China, license number SCXK(J) 2012-0001 and SCXK(J) 2016-0006). The body weights were 17-24 g.
MOLM-13 systemic tumor model were established by injecting tumor cells into the tail vein (10×10^6 cells/mouse) under the sterile condition. To establish the MOLM-13 systemic model, all animals were intraperitoneally injected (i.p.) with cyclophosphamide (150 mg/kg) for two consecutive days before the inoculation of MOLM-13 cells. On the third day after cell inoculation, animals were randomized into 10 mice per group and treatment was initiated (day 1) according to Table 2.
The animals were euthanized when the experimental animals had symptoms such as weight loss and weight loss greater than 20%, limb paralysis, tumor metastasis to the eye causing ocular protrusion, tumor metastasis to the abdominal cavity causing abdominal enlargement. These severe health issues were considered as the same as animal death caused by tumor growth and the affected animals were sacrificed immediately.
The date of the last mouse died (the last measurement) was used for analysis of median overall survival and the generation of Kaplan-Meier plots. Survival curves of different treatment groups were compared using log-rank test with Bonferroni's multiple test. All data were analyzed in SPSS version 18.0 (IBM, Armonk, NY, U.S.A.). Prism version 6 (GraphPad Software Inc., San Diego, CA, U.S.A.) was used for graphic presentation.

[2] = tested on: Human AML cell line MV-4-11 (FLT3-ITD positive and wild type TP53 gene); assay: Human MV-4-11 AML subcutaneous mouse xenograft model; format: in vivo; conditions: MV-4-11 subcutaneous xenograft, Compound 23 10 mg/kg, Compound C 30 mg/kg
Protocol: The formulation of Compound C was prepared as homogenous suspension in 0.2% HPMC using a mortar. The drug suspension was prepared every three days or once a week and placed at 4° C. when not in use. Before use, the drug suspension was placed at room temperature and shaken to mix well. The formulation of Compound C was administered to mice via p.o. in a volume of 10 mL/kg. […] The drug suspension was prepared once every other day and placed at 4° C. when not in use. Before use, the drug suspension was placed at room temperature and shaken well. […] MV-4-11 cells (Human AML cell line MV-4-11 (FLT3-ITD positive and wild type TP53 gene)) were maintained in IMDM (Cat. C12440500BT, GIBCO), with 10% fetal bovine serum (Cat. 10099-141, GIBCO), 1% L-glutamine, 100 U/mL penicillin G and 100 μg/mL streptomycin (Cat. GNM15140, Hangzhou Geno Biomedical Technology Co., Ltd). Cells were incubated at 37° C. in a humidified incubator with 5% CO2. Six to eight weeks old, female, NOD SCID and BALB/c nude mice were used. Animals were obtained from Vital River Laboratories (VRL, Beijing, China, license number SCXK(J) 2012-0001 and SCXK(J) 2016-0006). The body weights were 17-24 g. Randomization was conducted when the size of xenograft tumors reached 100-150 mm^3. Based on the size of the tumor and body weight, animals were randomly assigned into experimental groups. […] MV-4-11 subcutaneous xenograft models were established by subcutaneously injecting tumor cells (1×10^7 cells (50% Matrigel)/mouse) into the right flank of the mouse under the sterile condition. When the tumors reached an appropriate size (100-200 mm^3), mice were randomized into 6 mice per group and treatment was initiated (day 1) according to Table 4. [table] The tumors sizes and animal body weights were measured twice a week. Tumor volumes were estimated from measurements of two diameters of the individual tumors as follows: Tumor Volume (mm^3)=(a×b^2)/2 Relative tumor volume (RTV) were calculated according to the follows: RTV=Vt/V1 where V1 and Vt were respectively the average tumor volume on the first day of treatment (day 1) and the average tumor volume on a certain time point (day T). Standard NCI procedures were used to calculate tumor parameters (Teicher, B. A. (2011). “Tumor Models in Cancer Research.” Second Edition, Human Press). Percent tumor growth inhibition (% T/C) was calculated as the mean RTV of treated tumors (T) divided by the mean RTV of control tumors (C)×100%. […] A body weight loss (mean of group) of greater than 20%, or greater than 20% of drug deaths are considered to indicate an excessively toxic dosage. The synergistic analysis was performed using the following formula described in Clarke R. Issues in experimental design and endpoint analysis in the study of experimental cytotoxic agents in vivo in breast cancer and other models[J]. Breast Cancer Research & Treatment, 1997, 46(2-3):255-278, which is incorporated by reference in its entirety: expected value=(A/C)×(B/C); actual value=(AB)/C; A: RTV of drug A; B: RTV of drug B; C=RTV of the vehicle control group; AB=RTV of the combination group. Ratio=expected/actual value. […] A ratio=1 indicates the two drugs have additive effects. A ratio <1 indicates the two drugs may have antagonist effects. According to the earlier publication (Gao, H., et al. (2015). “High-throughput screening using patient-derived tumor xenografts to predict clinical trial drug response” Nat Med 21: 1318), additional measurements of response included stable disease (SD), partial tumor regression (PR), and complete regression (CR) were determined by comparing tumor volume change at day t to its baseline: tumor volume change (%)=(Vt−V1)/V1. […] For each time t, the average of tumor volume change from t=1 to t was also calculated. […]

CCN1[C@@H](C(=O)NC23CCC(C(=O)O)(CC2)CC3)[C@H](c2cccc(Cl)c2F)[C@]2(C(=O)Nc3cc(Cl)ccc32)C12CCCCC2 [Compound C]
Median survival time of mice ([1]; vehicle 19 days): 25.5 days
Prolonged survival time of mice ([1]; versus vehicle): 6.5 days
Tumor weight on D 22 (Mean ± SEM) ([2]; day 22, p.o. q2d × 22 d, vehicle 2.29 ± 0.29, in g (unit assumed)): 1.45 ± 0.32
T/C(%)@D 22 ([2]; mean RTV treated/control, day 22, p.o. q2d): 59.6%
RTV@D 22 ([2]; relative tumor volume day 22, p.o. q2d, vehicle 18.2 ± 3.3): 10.8 ± 1.6
